The values below come from patent US7763662B2, “Use of C2-substituted indan-1-ol systems for preparing medicaments for the prophylaxis or treatment of obesity” (Sanofi-Aventis Deutschland GmbH, priority 2001, dated 2010).

The test system of one series is female NMRI mice. Briefly: Anorectic action: cumulative evaporated milk consumption after 24 h feed removal. It counts as in vivo. The following applies: ip or po (route not specified), N=5; for Reduction in cumulative milk consumption as % of the control: compared with vehicle-treated control animals; for cumulative milk consumption by treated animals: milk offered 30 min after administration, monitored for 7 hours. On the procedure:
The activity of the compounds was assayed as follows:
The anorectic action was tested on female NMRI mice. After removal of feed for 24 hours, the preparation to be tested was administered intraperitoneally (ip) or by gavage (po). The animals were housed singly and, with free access to drinking water, they were offered evaporated milk 30 minutes after administration of the preparation. The consumption of evaporated milk was determined and the general behavior of the animals was monitored every half an hour for 7 hours. The measured milk consumption was compared to that of vehicle-treated control animals.

The melting point is the temperature, or range, at which the solid turns liquid. `CSC1Cc2cc(Cl)ccc2C1O` (stereo not shown) (hydrate or solvate) [Example 4, 5-Chloro-2-methylsulfanylindan-1-ol] displayed a melting point of 197.1 °C.

As to `CS(=O)(=O)C1Cc2cc(Cl)ccc2C1O` (stereo not shown) [Example 1, 5-Chloro-2-methylsulfonylindan-1-ol], the melting point was 163 °C. In the series on female NMRI mice (dose 20 mg/kg), the “Reduction in cumulative milk consumption as % of the control” value was 50 % of the control and the “cumulative milk consumption by treated animals” value is 5/1.94 ml.

On to `CCS(=O)(=O)C1Cc2cc(Cl)ccc2C1O` (stereo not shown) [Example 3, 5-Chloro-2-ethanesulfonylindan-1-ol], for which the melting point came out at 145 °C.

For `CSC1Cc2cc(Cl)ccc2C1O` (stereo not shown) [Example 4, 5-Chloro-2-methylsulfanylindan-1-ol], in the series with female NMRI mice (dose 50 mg/kg), the “Reduction in cumulative milk consumption as % of the control” value is on record as 85 % of the control and the “cumulative milk consumption by treated animals” value is 5/0.70 ml.
